In a melting point compilation (Tetko et al.; mined from patent text by program, amines drawn as free bases though some values may be those of a salt) one finds melting point data, which are given here for 89 molecules.

Turning to `CCC(CC)(CO)c1cc(Cl)nnc1Cl`, the melting point was 85 to 87 °C.
The value for `Nc1nc(NCCc2ccc(Oc3nc(N)n4nc(-c5ccco5)nc4n3)cc2)nc2nc(-c3ccco3)nn12` was 186 to 190 °C; that for `COCCOc1cc(Oc2ccccc2)cnc1Nc1nccs1` was 141 °C; that for `N#Cc1c(N)nc2ccc(N3CCOCC3)cc2c1O` was 291 °C.
As for `CSc1nnc(-c2ccc3occ(-c4cccc(OC(F)(F)F)c4)c3c2)o1`, the melting point fell in the range of 113 to 114 °C.
The same measure for `COC=C1C(=O)N(OCc2ccccc2)C(=O)c2ccccc21`: 161 to 162 °C; for `FC(F)(F)c1ccc2c(Cl)ncc(Br)c2n1`: 59 to 60 °C; for `COc1ccccc1N1CCN(CCNC(=O)CCN2CCC(c3c[nH]c4cc(F)ccc34)CC2)CC1`: 68 to 70 °C.
The same measure for `CCc1nn(-c2ccc(Cl)nn2)c(CC)c1[N+](=O)[O-]`: 83 to 85 °C; for `CS(=O)c1ccc(C(=O)Cc2ccccc2)cc1` (centres undefined): 104 °C; for `OC(c1ccccc1)(c1ccc(F)cc1)c1ncc[nH]1` (centres undefined): 199 to 200 °C.
Turning to `COc1ccc(C2OC(O[Si](C)(C)C)(C(F)(F)F)C(C)(C)N2C(=O)COc2ccccc2)cc1` (centres undefined), the melting point is 89 to 92 °C.
The same measure for `c1ccc(C2=NN=C(N3CCOCC3)SC2)cc1`: 173 to 174 °C.
Consider `CC1CCCN1C1CCN(c2ccc(C(=O)NC3CCOCC3)cc2)C1` (centres undefined), for which the melting point was found to be 180 °C.
The molecule `CS(=O)(=O)NC1CCC(NC(=O)Nc2ccc(C(F)(F)F)cc2)CC1` (centres undefined) had a melting point of 237 to 239 °C.
The same measure for `CN(OCC(=O)O)C(=S)NC(c1ccccc1)c1ccccc1`: 160 to 162 °C.
As for `COc1ccc(C(=O)NC(=O)Nc2cccc3c2CC(=O)N3)cc1`, the melting point lay in the range of 276 to 279 °C.
The value for `CCCCCc1ccccc1C=CC=C1SC(=S)N(CC(=O)O)C1=O` was 203 to 207 °C; that for `O=C(CC(Cc1ccccc1)(C(=O)O)C(=O)O)c1cccc(C(F)(F)F)c1` was 145 to 147 °C; that for `COC(=O)C12COc3cc(C(F)(F)F)ccc3C1=NN(C(=O)Nc1ccc(Cl)cn1)C2` (centres undefined) was 196 to 198 °C.
Molecule `CSc1ccc(CN(C)CCCCc2ccc(NC(=O)c3cccc4c(=O)c5ccccc5[nH]c34)cc2)cc1` showed a melting point of 135 °C.
The value for `CCCc1nc(SC)c(C(O)(C(=O)O)C(C)C)n1Cc1ccc(-c2ccccc2S(=O)(=O)NC(=O)NCc2ccccc2)cc1` (centres undefined) was 180 °C; that for `COC(=O)c1c(S(C)(=O)=O)ccc(C(=O)C2C(=O)CCCC2=O)c1Cl` was 160 to 162 °C; that for `O=C1CCCc2cc(Sc3cccc(F)c3)ccc21` was 66.2 to 66.7 °C.
The molecule `CS(=O)(=O)c1ccc(-c2cc(=O)n(CC(=O)c3ccccc3)nc2-c2ccc(F)cc2)cc1` returned a melting point of 178 to 180 °C.
Molecule `COCCOC(=O)C1=C(C)NC(C)=C(C(=O)OCCOC)C1c1ccccc1OC(F)F` came in with a melting point of 94 to 95 °C.
The value for `O=C(O)c1c[nH]c2cc(Cl)c([N+](=O)[O-])cc2c1=O` was 294 to 297 °C; that for `Cn1c([N+](=O)[O-])cnc1-c1nnc2ccc(N3CCOCC3)nn12` was 240 to 242 °C.
As for `Cc1ccc(N)cc1S(=O)(=O)Nc1onc(C)c1C`, the melting point is 204 to 205 °C.
Regarding `O=C(Nc1c(C(=O)c2ccccc2)[nH]c2cc(Cl)ccc12)c1ccccc1Cl`, the melting point fell in the range of 229 to 234 °C.
For the molecule `C[C@H]1C[C@H](O)CN1c1ccc(C#N)c2ccccc12`, the melting point lay within 149 to 151 °C.
The same measure for `O=C(NCc1ccc(Cl)cc1)c1ccccc1S`: 131 to 132 °C; for `CC(=O)c1cccc(-c2ncc(OCCCN(C)C)cn2)c1`: 61 to 62 °C; for `O=C(Oc1ccccc1)c1ccc2[nH]nnc2c1`: 156 to 160 °C.
The same measure for `COc1nccc(C)c1NC(=O)OC(C)(C)C`: 93 to 95 °C.
`Cc1noc(NS(=O)(=O)c2c(C)sc3ccccc23)c1C` yielded a melting point of 174 to 176 °C.
On to `c1ccc(COc2ccc3ccc4cccc5ccc2c3c45)cc1`, for which the melting point lay in the range of 105 to 106 °C.
The value for `COc1cc2c(cc1OC)CN(CCc1ccc(NC(=O)c3cccc4c(=O)c5cccc(F)c5[nH]c34)c(C)c1)CC2` was 210 °C.
The same measure for `N#Cc1c(N2CCN(C(=O)c3cccs3)CC2)c2cscc2n(Cc2ccc(F)cc2)c1=O`: 238 °C; for `CC1(C(=O)O)c2ccccc2-c2ccccc21`: 168 to 169 °C; for `O=Cc1ccc(/C=C/c2ccncc2)cc1`: 116 to 117 °C.
The same measure for `O=C(NCC1CCC1)NCC1CCC1`: 153 to 155 °C.
The molecule `O=C(NC1=NCCC1)Nc1ccc(Br)cc1` returned a melting point of 221 to 224 °C.
The same measure for `CCOc1cc2c(cc1S(N)(=O)=O)C(CNC(=O)c1cc(Cl)ccc1OC)CCO2` (centres undefined): 204 to 205 °C.
The same measure for `CC(=O)OCc1ccc2oc(=O)c(C(=O)Oc3cc([N+](=O)[O-])ccc3[N+](=O)[O-])cc2c1`: 162 to 164 °C; for `CC(C)(C)c1cccc(S(=O)(=O)n2c(Cc3ccc(C(=O)O)cc3F)cc3cc(C(F)(F)F)ccc32)c1`: 177 °C.
In the case of `CC(C)c1nc(CN2C(=O)C3(COc4cc5c(cc43)OCO5)c3c(Cl)cccc32)no1` (centres undefined), the melting point was in the range of 165 to 167 °C.
The same measure for `CC1(C)CCC(C)(C)c2cc(C(=O)COc3ccc(C=O)c(O)c3)ccc21`: 111 to 112 °C; for `CN(C(=O)Nc1ccc(Cl)c(Cl)c1)S(C)(=O)=O`: 140 °C; for `CC1SC(=O)C=NC1=O` (centres undefined): 81 to 83 °C.
The value for `C=CC(=O)OCCCCCCCCCCCCOc1ccc(-c2cccc(F)c2F)cc1` was 59.7 to 60.7 °C.
As for `O=C(COc1ccccc1)N[C@@H](Cc1ccc([N+](=O)[O-])cc1)C(=O)O`, the melting point was found to be 147 °C.
The same measure for `Cc1cc(SCCc2ccc(-c3ccc(C(F)(F)F)cc3)cc2)ccc1OCC(=O)O`: 132 to 134 °C; for `Cc1ccn2c(C)c(-c3ccc4c(c3)N(C)C(=O)CS4)nc2c1`: 231 °C; for `Cc1cc(-c2cnn(-c3ccccc3)c2)ccc1OC=C1C=CC=CC1n1nnn(C)c1=O` (centres undefined): 152 to 153 °C.
`Cc1ncc(C#N)c(Nc2ccc3[nH]ccc3c2C)c1-c1ccc(OCCN2CCN(C)CC2)cc1` yielded a melting point of 183 to 184 °C.
The value for `COc1ccc(C(=O)Nc2ccccc2)cc1Nc1cc(C)cc(C)c1` was 198 to 199 °C; that for `COc1ccc2c(c1)C(=O)c1cc(CC(=O)O)ccc1SC2` was 155 to 157 °C.
The same measure for `CCOC(=O)C(=O)CC(=O)c1cn(Cc2ccncc2)c2ccccc2c1=O`: 168 to 169 °C.
On to `CCOC(=O)c1ccc(CSc2nnc(C)s2)cc1`, for which the melting point fell in the range of 55 to 58 °C.
The same measure for `CN1CCC(O)(c2cnc3ccccc3c2)CC1`: 175 °C; for `CC(C)(C)OC(=O)C1CCN(Sc2ccncc2)CC1`: 71 to 72 °C.
The same measure for `CCCc1nc2c(C)ccnc2n1Cc1ccc(-c2ccccc2-c2nnn[nH]2)cc1`: 200 to 202 °C; for `O=C(Nc1cccc(-c2ccnc3c(C(=O)c4cccs4)cnn23)c1)OCC(Cl)(Cl)Cl`: 197 to 200 °C.
As for `CS(=O)(=O)c1ccc([C@@H](CC2CCCC2)C(=O)Nc2nc3ccccc3[nH]2)cc1`, the melting point was 230 to 232 °C.
The value for `COC(=O)C1(C)OCC(c2ccccc2)(c2ccccc2)CO1` was 116 °C.
With `N#Cc1ccc(OCCCOc2ccc(-c3cc4ccc(C#N)cc4o3)cc2)cc1`, the melting point fell in the range of 208 to 210 °C.
The same measure for `ClCCn1cnc2c(NC3CCCCC3)nc(Cl)nc21`: 150 to 152 °C.
The same measure for `CC(=O)OCCc1ccc2sc(S(N)(=O)=O)cc2c1`: 120 to 122 °C; for `COC(=O)NCC1Cc2c(Cl)cc3c(c2O1)CCC3` (centres undefined): 139 to 141 °C.
The value for `O=C(O)c1cccc(-c2ccc3c(c2)N(c2ccc(Cl)cc2Cl)CCCC3)c1` was 131 to 132 °C; that for `CCCCC(=O)c1c(CBr)nc2cc(OC)c(OC)cc2c1-c1ccc(OC)c(OC)c1` was 150 to 151 °C.
Take `CC(=O)Nc1nc(N)nc(-c2ccc(-c3ccccc3)cc2)n1`: the melting point was over 260 °C.
The value for `N#Cc1ccc(C2=Nc3ccc(-c4ccccc4F)cc3NC(=O)C2)s1` was over 250 °C; that for `CN(C)c1cc(C(=O)CS(C)(=O)=O)cc(N(C)C)c1C(C)(C)C` was 177 to 179 °C.
The same measure for `Cc1cnc2n(c1=O)C(C)CCC2=NNc1ccccc1` (centres undefined): 165 to 166 °C.
On to `Cc1ccc(C(=O)c2cccc3c2CCC3=O)cc1`, for which the melting point is 105 to 108 °C.
In turn, `COCCN1CSC(=Cc2cc(C(C)(C)C)c(O)c(C(C)(C)C)c2)C1=O` returned a melting point of 147 to 149 °C.
In turn, `CCC1c2c(ncn2CC)CCN1C(=S)NC(C)C` (centres undefined) returned a melting point of 195 °C.
In the case of `O=C(Cc1ccncc1)Nc1cccc(-c2ccnc3c(C(=O)c4cccs4)cnn23)c1`, the melting point is 130 to 131 °C.
The value for `O=c1cnc2c([N+](=O)[O-])c(Cl)c(Cl)cc2[nH]1` was 330 to 332 °C; that for `O=C(Nc1ccc(C(=O)N2Cc3cccn3Cc3ccccc32)cc1)c1ccc2[nH]ccc2c1` was 130 to 170 °C; that for `CC(C)(C)c1cc2c(s1)Nc1ccccc1N=C2N1CCN[C@@H](CCc2ccccc2)C1` was 93 to 96 °C.
The value for `Cn1c(=O)c2ccccc2n(CCCBr)c1=O` was 90 to 96 °C; that for `CC1CCCCN1c1nc(-c2ccc(Cl)cc2)c(CCC(=O)O)o1` (centres undefined) was 126 to 128 °C; that for `CN(C)C=C1C(=O)N(c2cccc(F)c2)c2ccccc21` was 87 to 88.5 °C.
Turning to `CC(=O)CCc1c(OC(C)=O)cc(C(C)C)c(OC(C)=O)c1C(C)C`, the melting point was 108 to 112 °C.
The same measure for `C[C@@H](CN(Cc1ccccc1)Cc1ccccc1)OC(=O)N1C(C)(C)COC1(C)C`: 117 °C.
The value for `Cn1ncc2c1-c1cc(Cl)ccc1OC2` was 80.5 to 81 °C.

By melting point is commonly meant the temperature, or range, at which the solid turns liquid.
